From patent US12264163B2, “Compounds and methods for treating fibrotic pathologies” (Mayo Foundation for Medical Education and Research, priority 2019, dated 2025)

How the values were obtained:
normal healthy mice = conditions: mouse, in vivo
Protocol: Bleomycin model of pulmonary fibrosis was used to test the efficacy of DHX in vivo in experimental fibrosis. Mice were administered bleomycin intratracheally at Day 0. On Day 10 injury and inflammation typically subside and fibrosis is ongoing. At Day 10 mice were randomized into two groups, one receiving DHX (5 mg/kg once daily i.n.) and the other, vehicle control. […] At day 24 the mice were sacrificed and compared using histology, hydroxyproline and qPCR. […] To assess whether DHX adversely effects lung remodeling in the absence of fibrosis, we also exposed control mice to DHX following an identical time course and route of exposure.

CTGF, COL1A1, ACTA2, FN1 = test: Profibrotic / matrix remodeling gene expression by qPCR in fibroblasts; assay type: cell-based, human
Protocol: Genes which encode Connective tissue growth factor (CTGF), Collagen I (COL1A1), αSMA (ACTA2), and Fibronectin (FN1) are reduced by 24 hour treatment with DHX (10 μM), +/−SCH 39166 (3 μM). N=3 (****p<0.0001, ***p<0.001, *p<0.05 vs. 0.1% DMSO vehicle control)
IPF patient-derived fibroblasts cultured in media containing 0.1% FBS were stimulated for 24 hours with 2 ng/mL TGFβ and 10 μM DHX prior to RNA isolation. Genes which encode for ECM crosslinking: transglutaminase 2 (TGM2), lysyl oxidase and lysyl oxidase-like enzymes (LOX and LOXL1-4), ECM degradation: uPA (PLAU), tPa (PLAT), cathepsin K (CTSK), and matrix metalloprotease-14 (MMP14) and ECM protease inhibitors: metalloprotease inhibitor 3 (TIMP3), and plasminogen activator inhibitor 1 (SERPINE1) were measured. N=3. (****p<0.0001, ***p<0.001, **p<0.01, *p<0.05 vs. 0.1% DMSO vehicle control non-TGFβ treated), (++++p<0.0001, ++p<0.01, +p<0.05 vs. 0.10% DMSO vehicle control TGFβ treated).
For all other in vitro experiments, cells were treated as indicated prior to RNA isolation using RNeasy Plus Mini Kit (Qiagen) according to manufacturer's instructions. Isolated RNA (250 ng) was then used to synthesize cDNA using SuperScript VILO (Invitrogen). Quantitative PCR was performed using FastStart Essential DNA Green Master (Roche) and analyzed using a LightCycler 96 (Roche). Data are expressed as a fold change by ΔΔCt relative to GAPDH. For in vivo experiments, tissue was immediately frozen, and stored at −80° C. RNA isolation, cDNA synthesis, and qPCR analysis were performed as above.

NIH-3T3 cells = test: Matrix remodeling measured by atomic force microscopy; assay type: cell-based, mouse; conditions: TGFβ + ascorbic acid 72 hours, then 10 μM DHX 72 hours
Protocol: NIH-3T3 cells plated onto gelatin-coated tissue culture plates stimulated to deposit matrix with 2 ng/mL TGFβ and 20 μM ascorbic acid for 72 hours prior to AFM microindentation analysis to measure stiffness (elastic modulus). The same dishes were then treated +/−10 μM DHX in the same media for another 72 hours and AFM analysis. The matrices were decellularized and passage 3 NHLFs were plated onto the matrices; after 24 hours RNA was collected and expression of profibrotic genes was analyzed. AFM analysis N=2. 75 indentation measurements were made for each plate. The box and whisker plots show min to max, quartile, and mean from one representative experiment (****p<0.0001 vs. 0.1% DMSO vehicle control) (++p<0.01, +p<0.05 vs. the same culture plate after the first 72 hour incubation). […]
Matrix Remodeling Measured by Atomic Force Microscopy: NIH-3T3 cells were plated to confluence onto gelatin coated (Cell Biologics) AFM compatible tissue culture dishes (Willco) in DMEM containing 10% FBS. […] Microindentations were performed using a 2.5 μm radius sphere-tipped probe (Novascan, IA, USA) with a spring constant determined at about 100 pN/nm by thermal fluctuation method. For each dish, 3 different areas were analyzed. […] The Young's modulus E was determined by the fitting of force curve by Hertz model using NanoScope Analysis software (Bruker) and considering Poisson's ratio of 0.5. […]

- lung collagen deposition (normal healthy mice): did not alter lung collagen deposition
- lung histology (normal healthy mice): did not alter lung histology
SMILES: Oc1cc2c(cc1O)[C@H]1c3ccccc3CN[C@@H]1CC2 (racemic) [Dihydrexidine]
- body weight (normal healthy mice): did not alter body weight
- expression of Ctgf, Col1a1, Acta2, and Fn1 (normal healthy mice): did not alter expression of Ctgf, Col1a1, Acta2, and Fn1
- expression of matrix crosslinking, protease inhibitor and matrix degradation genes (CTGF, COL1A1, ACTA2, FN1; IPF patient derived fibroblasts, 2 ng/mL TGFβ + 10 μM DHX, 24 hours): reversed the effects of TGFβ
- expression of profibrotic genes CTGF, COL1A1, ACTA2, FN1 (CTGF, COL1A1, ACTA2, FN1; IPF patient-derived lung fibroblasts, 10 μM, 24 hour): reduced
- profibrotic gene expression and extracellular matrix accumulation with constitutively active TAZ (CTGF, COL1A1, ACTA2, FN1; NIH-3T3 cells expressing doxycycline-inducible TAZ4SA): no effect on profibrotic gene expression or extracellular matrix accumulation
- profibrotic gene expression in human dermal fibroblasts (CTGF, COL1A1, ACTA2, FN1; human dermal fibroblasts, 24 hours +/− 2 ng/mL TGFβ): blocks profibrotic gene expression
- stiffness of cells and cell-derived matrix (AFM) (NIH-3T3 cells): significantly reduced the observed stiffness
